Where a SMILES comes first, the peptide text is derived from it. [ ]: non-standard residue; d: D form. The star is where a group is joined. Succinyl(4-O-cholesteryl) = CC(C)CCC[C@@H](C)[C@H]1CC[C@H]2[C@@H]3CC=C4C[C@@H](OC(=O)CCC(=O)*)CC[C@]4(C)[C@H]3CC[C@]12C; Sta = CC(C)C[C@H](N)[C@@H](O)CC(=O)O; PEG4 = NCCOCCOCCOCCOCCC(=O)O

For the test, the target named is T1, BACE1 (Homo sapiens, UniProt P56817).
T1 construct: Human HEK293 cells which are stably transfected with a vector expressing a cDNA of the human APP wt gene (APP695); endogenous in cells; host or cells: HEK293 (human), stably transfected with human APP695 wt
T1 sequence (P56817 46-501): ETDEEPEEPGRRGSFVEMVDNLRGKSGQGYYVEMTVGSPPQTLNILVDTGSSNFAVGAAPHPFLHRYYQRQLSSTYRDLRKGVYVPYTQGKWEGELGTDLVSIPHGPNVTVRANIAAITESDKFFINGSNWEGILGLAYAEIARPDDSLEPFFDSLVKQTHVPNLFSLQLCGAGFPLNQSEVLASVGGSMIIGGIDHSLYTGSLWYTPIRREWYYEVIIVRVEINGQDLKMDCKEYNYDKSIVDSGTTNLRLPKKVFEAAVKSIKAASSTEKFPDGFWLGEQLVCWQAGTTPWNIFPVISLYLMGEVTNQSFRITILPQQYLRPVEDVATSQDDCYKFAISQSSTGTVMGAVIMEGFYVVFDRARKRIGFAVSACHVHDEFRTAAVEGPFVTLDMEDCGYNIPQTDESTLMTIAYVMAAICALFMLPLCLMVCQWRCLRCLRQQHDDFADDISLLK
As to the kind of experiment: Cellular Aβ-lowering assay (Aβ40 ELISA of culture supernatant). The class given is cell-based. As to conditions: Aβ40 in supernatant of human HEK293 cells stably transfected with human APP wt (APP695); 18-20 hrs incubation; read-out: IC 50. As for the experimental part: The compounds were investigated in accordance with the test given hereinafter.
Cellular Aβ-Lowering Assay:
Human HEK293 cells which are stably transfected with a vector expressing a cDNA of the human APP wt gene (APP695) were used to assess the potency of the compounds in a cellular assay. The cells were seeded in 96-well microtiter plates in cell culture medium (Iscove, plus 10% (v/v) fetal bovine serum, glutamine, penicillin/streptomycin) to about 80% confluence and the compounds were added at a 10× concentration in 1/10 volume of medium without FCS containing 8% DMSO (final concentration of DMSO was kept at 0.8% v/v). After 18-20 hrs incubation at 37° C. and 5% CO2 in a humidified incubator the culture supernatant was harvested for the determination of Aβ40 concentrations. 96 well ELISA plates (e.g., Nunc MaxiSorb) were coated with monoclonal antibody which specifically recognize the C-terminal end of Aβ40 (Brockhaus et al., NeuroReport 9; 1481-1486; 1998). After blocking of non-specific binding sites with e.g. 1% BSA and washing, the culture supernatants were added in suitable dilutions together with a horseradish peroxidase-coupled Aβ detection antibody (e.g., antibody 4G8, Senetek, Maryland Heights, Mo.) and incubated for 5 to 7 hrs. Subsequently the wells of the microtiter plate were washed extensively with Tris-buffered saline containing 0.05% Tween 20 and the assay was developed with tetramethylbenzidine/H2O2 in citric acid buffer. After stopping the reaction with one volume 1 N H2SO4 the reaction was measured in an ELISA reader at 450 nm wavelength. The concentrations of Aβ in the culture supernatants were calculated from a standard curve obtained with known amounts of pure Aβ peptide.
A general note: ELISA stands for enzyme-linked immunosorbent assay.
Turning to `CC(C)CCC[C@@H](C)[C@H]1CC[C@H]2[C@@H]3CC=C4C[C@@H](OC(=O)CCC(=O)NCCCC[C@H](NC(=O)[C@H]5CCCN5C(=O)[C@H](CCC(=O)O)NC(=O)[C@H](C)NC(=O)[C@@H](NC(=O)C[C@H](O)[C@H](CC(C)C)NC(=O)[C@H](CC(N)=O)NC(=O)[C@@H](NC(=O)[C@H](CCC(=O)O)NC(=O)CCOCCOCCOCCOCCNC(=O)[C@H](CC(C)C)NC(=O)[C@@H]5CCCN5C(=O)[C@H](CCCCN)NC(=O)[C@H](Cc5ccccc5)NC(=O)[C@H](Cc5ccc(O)cc5)NC(=O)[C@@H]5CCCN5C(=O)[C@@H](N)Cc5ccc(O)cc5)C(C)C)C(C)C)C(N)=O)CC[C@]4(C)[C@H]3CC[C@]12C` [Example 34, Tyr-Pro-Tyr-Phe-Lys-Pro-Leu-PEG(4)-Glu-Val-Asn-Sta-Val-Ala-Glu-DPro-Lys(Chol)-NH2] (H-YPYFKPL[PEG4]EVN[Sta]VAE[dP]K(Succinyl(4-O-cholesteryl))-NH2), the IC50 turned out to be 0.0235 nM.

In the case of `CC[C@H](C)[C@H](NC(=O)[C@H](Cc1ccccc1)NC(=O)[C@H](Cc1ccc(O)cc1)NC(=O)[C@@H]1CCCN1C(=O)[C@@H](N)Cc1ccc(O)cc1)C(=O)N1CCC[C@H]1C(=O)N[C@@H](CC(C)C)C(=O)N[C@@H](CCCCN)C(=O)NCC(=O)NCC(=O)N[C@@H](CCC(=O)O)C(=O)N[C@H](C(=O)N[C@@H](CC(N)=O)C(=O)N[C@@H](CC(C)C)[C@@H](O)CC(=O)N[C@H](C(=O)N[C@@H](C)C(=O)N[C@@H](CCC(=O)O)C(=O)N1CCC[C@@H]1C(=O)N[C@@H](CCCCNC(=O)CCC(=O)O[C@H]1CC[C@@]2(C)C(=CC[C@H]3[C@@H]4CC[C@H]([C@H](C)CCCC(C)C)[C@@]4(C)CC[C@@H]32)C1)C(N)=O)C(C)C)C(C)C` [Example 40, Tyr-Pro-Tyr-Phe-Ile-Pro-Leu-Lys-Gly-Gly-Glu-Val-Asn-Sta-Val-Ala-Glu-DPro-Lys(Chol)-NH2], the IC50 amounted to 0.0235 nM.

As to `CC[C@H](C)[C@H](NC(=O)[C@H](Cc1ccccc1)NC(=O)[C@H](Cc1ccc(O)cc1)NC(=O)[C@@H]1CCCN1C(=O)[C@@H](N)CCCCN)C(=O)N1CCC[C@H]1C(=O)N[C@@H](CC(C)C)C(=O)NCC(=O)N[C@H](CCCCN)C(=O)NCC(=O)N[C@@H](CCC(=O)O)C(=O)N[C@H](C(=O)N[C@@H](CC(N)=O)C(=O)N[C@@H](CC(C)C)[C@@H](O)CC(=O)N[C@H](C(=O)N[C@@H](C)C(=O)N[C@@H](CCC(=O)O)C(=O)N1CCC[C@@H]1C(=O)N[C@@H](CCCCNC(=O)CCC(=O)O[C@H]1CC[C@@]2(C)C(=CC[C@H]3[C@@H]4CC[C@H]([C@H](C)CCCC(C)C)[C@@]4(C)CC[C@@H]32)C1)C(N)=O)C(C)C)C(C)C` [Example 48, Lys-Pro-Tyr-Phe-Ile-Pro-Leu-Gly-DLys-Gly-Glu-Val-Asn-Sta-Val-Ala-Glu-DPro-Lys(Chol′estert)-NH2] (H-KPYFIPLG[dK]GEVN[Sta]VAE[dP]K(Succinyl(4-O-cholesteryl))-NH2), the IC50 turned out to be 0.02 nM.

`CC[C@H](C)[C@H](NC(=O)[C@H](Cc1ccccc1)NC(=O)[C@H](Cc1ccc(O)cc1)NC(=O)[C@@H]1CCCN1C(=O)[C@@H](N)Cc1ccc(O)cc1)C(=O)N1CCC[C@H]1C(=O)N[C@@H](CC(C)C)C(=O)NCC(=O)N[C@H](C)C(=O)NCC(=O)N[C@@H](CCC(=O)O)C(=O)N[C@H](C(=O)N[C@@H](CC(N)=O)C(=O)N[C@@H](CC(C)C)[C@@H](O)CC(=O)N[C@H](C(=O)N[C@@H](C)C(=O)N[C@@H](CCC(=O)O)C(=O)N1CCC[C@@H]1C(=O)N[C@@H](CCCCNC(=O)CCC(=O)O[C@H]1CC[C@@]2(C)C(=CC[C@H]3[C@@H]4CC[C@H]([C@H](C)CCCC(C)C)[C@@]4(C)CC[C@@H]32)C1)C(N)=O)C(C)C)C(C)C` [Example 53, Tyr-Pro-Tyr-Phe-Ile-Pro-Leu-Gly-DAla-Gly-Glu-Val-Asn-Sta-Val-Ala-Glu-DPro-Lys(Chol′ester′)-NH2]: the IC50 was determined as 0.02 nM.

Consider `CC[C@H](C)[C@H](NC(=O)[C@H](Cc1ccccc1)NC(=O)[C@H](Cc1ccc(O)cc1)NC(=O)[C@@H]1CCCN1C(=O)[C@@H](N)Cc1ccc(O)cc1)C(=O)N1CCC[C@H]1C(=O)N[C@@H](CC(C)C)C(=O)N[C@@H](CO)C(=O)NCC(=O)NCC(=O)N[C@@H](CCC(=O)O)C(=O)N[C@H](C(=O)N[C@@H](CC(N)=O)C(=O)N[C@@H](CC(C)C)[C@@H](O)CC(=O)N[C@H](C(=O)N[C@@H](C)C(=O)N[C@@H](CCC(=O)O)C(=O)N1CCC[C@@H]1C(=O)N[C@@H](CCCCNC(=O)CCC(=O)O[C@H]1CC[C@@]2(C)C(=CC[C@H]3[C@@H]4CC[C@H]([C@H](C)CCCC(C)C)[C@@]4(C)CC[C@@H]32)C1)C(N)=O)C(C)C)C(C)C` [Example 54, Tyr-Pro-Tyr-Phe-Ile-Pro-Leu-Ser-Gly-Gly-Glu-Val-Asn-Sta-Val-Ala-Glu-DPro-Lys(Chol′ester′)-NH2] (H-YPYFIPLSGGEVN[Sta]VAE[dP]K(Succinyl(4-O-cholesteryl))-NH2), for which the IC50 came to 0.052 nM.
